# Test results reported in US20130252930A1 (BIOMARIN PHARMACEUTICAL INC., priority 2010, published 2013).
# Where two headings read alike, the source gives them in different places.
# What was measured:
# [1] = target: T1, CYP17 (human testicular microsome) (Homo sapiens, UniProt P05093); test: CYP17 enzymatic assay (% inhibition at 1 nM) (Biological Example 12); type: biochemical
# T1 construct: using microsomal fraction from human testis (Celsis Cat #S00110) as the enzyme source; tissue Celsis S00110; host or cells: human testis microsomal fraction
# T1 sequence (P05093 1-508): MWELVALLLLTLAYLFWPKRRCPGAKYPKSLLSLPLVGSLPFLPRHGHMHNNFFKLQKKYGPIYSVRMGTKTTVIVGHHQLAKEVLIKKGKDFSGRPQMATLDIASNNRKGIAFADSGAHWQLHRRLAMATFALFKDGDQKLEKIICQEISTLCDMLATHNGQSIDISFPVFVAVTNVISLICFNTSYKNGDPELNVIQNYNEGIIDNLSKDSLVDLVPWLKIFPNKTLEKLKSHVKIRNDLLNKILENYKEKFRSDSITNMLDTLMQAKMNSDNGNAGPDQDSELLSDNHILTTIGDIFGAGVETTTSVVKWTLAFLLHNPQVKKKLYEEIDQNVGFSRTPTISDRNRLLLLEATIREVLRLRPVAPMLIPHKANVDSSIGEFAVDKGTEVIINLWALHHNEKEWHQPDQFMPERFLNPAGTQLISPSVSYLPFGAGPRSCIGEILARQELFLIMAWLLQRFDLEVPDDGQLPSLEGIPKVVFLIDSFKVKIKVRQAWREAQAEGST
# Experimental: The assays were performed in 96-well plates. Typical assays were carried out in total 100 μL volume that included test compounds at 1 nM concentration, 1× reaction buffer, 0.5 mM NADPH, 1 μM 17α-hydroxypregnenolone, and 2.5 μL of human testicular microsome (Celsis. Cat #S00110). Reaction without test compound served as a positive control. Reactions were allowed to incubate at 37° C. for 90 min with gentle shaking. The reaction was stopped by directly applying the enzymatic reaction mixture to ELISA plate for evaluation of DHEA concentration according to manufacturer's protocol (IBL America). A standard curve (OD450 vs. DHEA concentration) was generated using purified DHEA. […] Percent inhibition (inhibition %) of the compound was calculated using normalized DHEA concentration based on following formula: 100−([DHEA] of compound/[DHEA] of positive control*100).
# CYP17 (H295R cells) = target: T2, CYP17 (H295R cells) (Homo sapiens, UniProt P05093); test: CYP17 cellular assay (IC50), testosterone in H295R cells (Biological Example 7); type: cell-based; details: H295R cells
# T2 construct: endogenous in cells; host or cells: H295R cells
# T2 sequence (P05093 1-508): T1 sequence (P05093 1-508)
# Experimental: The assays were performed in 96-well plates. Typically H295R cells were seeded at 4.5×10^4 cells/well in 100 μL Growth Medium containing DMEM/F-12 (Gibco/Invitrogen; 11330-032), 2.5% Nu-Serum (BD Bioscience; 355100) and ITS (BD Bioscience; 354352), and cultured at 37° C., 5% CO2 for 24 hr. The next day, media were carefully removed and cells were washed twice with 200 μL 1×HBSS++. Test compounds were then added to the cells at 100, 10, 1, 0.1 nM final concentrations in 125 μL volume per well in serum-free media containing DMEM/F-12 and ITS+ Premix (BD Bioscience; 354352) with 0.1% methanol. Serum-free media with 0.1% methanol without test compound was used as control. Cells were incubated with compounds at 37° C. for additional 24 hours, and the cultured media from each compound treated well was harvested for measurement of testosterone concentration by ELISA according to manufacturer's instruction (Assay Design). Testosterone concentration of each sample was plotted vs. the concentration of the test compounds.
# [2] = Human liver microsome stability assay (Biological Example 8b); details: liver microsomes, pH 7.4
# Experimental: The reaction was started with addition of excess NADPH (5 mg/mL, 15 μL in 0.1 M potassium phosphate buffer, 1.0 mM EDTA, pH 7.4), the total volume is 45 μL (compound final concentration was 1 μM). […] 50 μL of the supernatant was transferred from each well into a 96-well sample plate containing 50 μL of ultra-pure water (Millipore) for LC-MS/MS analysis.
# [3] = target: T1, CYP17 (human testicular microsome); test: CYP17 enzymatic assay (% inhibition at 10 nM), version 1 (Biological Example 5); type: biochemical
# [4] = target: T1, CYP17 (human testicular microsome); test: CYP17 enzymatic assay (IC50) (Biological Example 4); type: biochemical
# [5] = target: T3, Cyp21 enzyme (Human HEK 293-Cyp21 stable transfected cells) (Homo sapiens, UniProt P08686); test: CYP21-HEK293 enzymatic assay (IC50) (Biological Example 11); type: cell-based
# T3 construct: expressed in transfected cells
# T3 sequence (P08686 1-495): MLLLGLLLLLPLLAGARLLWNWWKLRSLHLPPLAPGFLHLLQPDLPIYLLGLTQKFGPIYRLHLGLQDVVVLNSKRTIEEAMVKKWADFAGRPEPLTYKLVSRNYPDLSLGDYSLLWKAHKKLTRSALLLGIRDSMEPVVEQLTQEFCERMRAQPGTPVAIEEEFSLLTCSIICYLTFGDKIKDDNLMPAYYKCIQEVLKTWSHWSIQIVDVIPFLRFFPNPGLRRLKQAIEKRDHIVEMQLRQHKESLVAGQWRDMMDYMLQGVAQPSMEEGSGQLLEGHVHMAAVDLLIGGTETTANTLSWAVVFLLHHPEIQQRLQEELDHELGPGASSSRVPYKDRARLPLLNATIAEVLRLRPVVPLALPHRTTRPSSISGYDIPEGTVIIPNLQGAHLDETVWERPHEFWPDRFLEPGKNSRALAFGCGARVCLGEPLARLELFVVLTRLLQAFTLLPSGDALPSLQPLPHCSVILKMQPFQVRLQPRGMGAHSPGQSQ
# [6] = compound at 1 nM, read-out: CYP17 enzymatic assay % inhibition at 1 nM (Biological Example No. 12)
# [7] = testosterone, read-out: CYP17 cellular assay IC50 (Biological Example No. 7)
# [8] = 10 nM compound, DHEA by ELISA, read-out: Biological Example No. 5: CYP17 percent inhibition at 10 nM (version 1)
# [9] = testosterone by ELISA, 24 hours, read-out: Biological Example No. 7: CYP17 cellular assay IC50
# [10] = human testicular microsome, DHEA by ELISA, read-out: Biological Example No. 4: CYP17 enzymatic assay IC50
# [11] = compound at 1 nM, read-out: Biological Example No. 12: CYP17 enzymatic assay % inhibition at 1 nM
# [12] = testosterone, read-out: Biological Example No. 7: CYP17 cellular assay IC50
# [13] = human testicular microsome, read-out: Biological Example No. 4: CYP17 enzymatic assay IC50
# [14] = human testicular microsome, read-out: CYP17 enzymatic assay IC50 (Biological Example No. 4)
# [15] = HEK 293-Cyp21 cells, read-out: Biological Example No. 11: CYP21-HEK293 enzymatic assay IC50
structure (smiles),measurement,setting,value
"CN(C)CC(=O)O[C@H]1CC[C@@]2(C)C(=CC[C@H]3C4=CC=C(c5cccnc5)[C@@]4(C)CC[C@@H]32)C1 [195′, (3S,10R,13S)-10,13-dimethyl-17-(pyridin-3-yl)-2,3,4,7,8,9,10,11,12,13-decahydro-1H-cyclopenta[a]phenanthren-3-yl 2-(dimethylamino)acetate]",inhibition at 0.001 µM,[1]; [6],> 50%
same,IC50,CYP17 (H295R cells); [7],15 to 100 nM
"CC(=O)N[C@@H]1CC[C@@]2(C)C(CCC3C2CC[C@]2(C)C(c4cnccc4C)=CCC32)C1 (stereo partly drawn) [Compound 21, N-((3R,10S,13S)-10,13-dimethyl-17-(4-methylpyridin-3-yl)-2,3,4,5,6,7,8,9,10,11,12,13,14,15-tetradecahydro-1H-cyclopenta[a]phenanthren-3-yl)acetamide]",half-life at 1 μM,[2],1 to 50 min
same,inhibition at 0.001 µM,[1]; [6],> 50%
same,IC50,CYP17 (H295R cells); [7],< 15 nM
"C[C@]12CCCC(=O)C1CC[C@@H]1[C@@H]2CC[C@]2(C)C(c3cccnc3)=CC[C@@H]12 (stereo partly drawn) [Compound 89, (10R,13S)-10,13-dimethyl-17-(pyridin-3-yl)-2,3,5,6,7,8,9,11,12,13,14,15-dodecahydro-1H-cyclopenta[a]phenanthren-4(10H)-one]",inhibition at 0.01 µM,[3]; [8],> 80%
same,IC50,CYP17 (H295R cells); [9],< 15 nM
same,IC50,[4]; [10],< 11 nM
"CC(=O)O[C@H]1CC[C@@]2(C)[C@@H](CC[C@@H]3[C@@H]2CC[C@]2(C)C(n4ccnn4)=CC[C@@H]32)C1 [Compound 130, (3S,5S,8R,9S,10S,13S,14S)-10,13-dimethyl-17-(1H-1,2,3-triazol-1-yl)-2,3,4,5,6,7,8,9,10,11,12,13,14,15-tetradecahydro-1H-cyclopenta[a]phenanthren-3-yl acetate]",inhibition at 0.01 µM,[3]; [8],> 80%
same,IC50,CYP17 (H295R cells); [9],< 15 nM
same,IC50,[4]; [10],< 11 nM
"C[C@]12CC[C@H]3[C@@H](CC=C4C[C@@H](O)CC[C@@]43C)C1=CC=C2c1cncc(C(F)F)c1 [Compound 272, (3S,10R,13S)-17-(5-(difluoromethyl)pyridin-3-yl)-10,13-dimethyl-2,3,4,7,8,9,10,11,12,13-decahydro-1H-cyclopenta[a]phenanthren-3-ol]",inhibition at 0.001 µM,[1]; [11],< 10%
same,IC50,CYP17 (H295R cells); [12],15 to 100 nM
"CC1C(O)CC[C@@]2(C)C1CC[C@@H]1[C@@H]2CC[C@]2(C)C(c3cccnc3)=CC[C@@H]12 (stereo partly drawn) [Compound 304, (10R,13S)-4,10,13-trimethyl-17-(pyridin-3-yl)-2,3,4,5,6,7,8,9,10,11,12,13,14,15-tetradecahydro-1H-cyclopenta[a]phenanthren-3-ol]",inhibition at 0.001 µM,[1]; [11],10 to 50%
same,IC50,CYP17 (H295R cells); [12],< 15 nM
same,IC50,[4]; [13],< 11 nM
"C[C@]12CC[C@H]3[C@@H](CCC45CC4C(O)CC[C@]35C)[C@@H]1CC=C2c1cccnc1 (stereo partly drawn) [Compound 314, (4aR,6aS)-4a,6a-dimethyl-7-(pyridin-3-yl)-1a,2,3,4,4a,4b,5,6,6a,9,9a,9b,10,11-tetradecahydro-1H-cyclopenta[a]cyclopropa[j]phenanthren-2-ol]",inhibition at 0.001 µM,[1]; [6],> 50%
same,IC50,CYP17 (H295R cells); [7],< 15 nM
same,IC50,[4]; [14],< 11 nM
"CC1C[C@H]2C3=CC=C(c4cccnc4)[C@@]3(C)CC[C@@H]2[C@@]2(C)CCC(=O)C=C12 (stereo partly drawn) [Compound 315, (10R,13S)-6,10,13-trimethyl-17-(pyridin-3-yl)-6,7,8,9,10,11,12,13-octahydro-1H-cyclopenta[a]phenanthren-3(2H)-one]",half-life at 1 μM,[2],1 to 50 min
same,inhibition at 0.001 µM,[1]; [11],> 50%
same,IC50,[5]; [15],< 10 nM
same,IC50,[4],< 11 nM
"C[C@]12CCC(=O)C=C1C(F)C[C@@H]1[C@@H]2CC[C@]2(C)C(c3cncc(F)c3)=CC[C@@H]12 (stereo partly drawn) [Compound 325, (10R,13S)-6-fluoro-17-(5-fluoropyridin-3-yl)-10,13-dimethyl-6,7,8,9,10,11,12,13,14,15-decahydro-1H-cyclopenta[a]phenanthren-3(2H)-one]",half-life at 1 μM,[2],1 to 50 min
same,inhibition at 0.001 µM,[1]; [11],> 50%
same,IC50,[5]; [15],> 1000 nM
same,IC50,[4]; [13],< 11 nM
"CC1C[C@H]2C3=CC=C(c4cccnc4)[C@@]3(C)CC[C@@H]2[C@@]2(C)C=CC(=O)C=C12 (stereo partly drawn) [Compound 349, (10R,13S)-6,10,13-trimethyl-17-(pyridin-3-yl)-6,7,8,9,10,11,12,13-octahydro-3H-cyclopenta[a]phenanthren-3-one]",half-life at 1 μM,[2],1 to 50 min
same,inhibition at 0.01 µM,"[3]; test compound at 10 nM, read-out: CYP17 enzymatic assay percent inhibition at 10 nM (Biological Example No. 5)",> 80%
same,inhibition at 0.001 µM,"[1]; test compound at 1 nM, read-out: CYP17 enzymatic assay percent inhibition at 1 nM (Biological Example No. 12)",> 50%
same,IC50,"[5]; HEK 293-Cyp21 stable transfected cells, read-out: CYP21-HEK293 enzymatic assay IC50 (Biological Example No. 11)",< 10 nM
"C[C@]12CCNC(=O)C=C1C(F)CC1C2CC[C@]2(C)C(c3cccnc3)=CCC12 (stereo partly drawn) [Compound 370, (5aR,7aS)-12-fluoro-5a,7a-dimethyl-8-(pyridin-3-yl)-3,4,5,5a,5b,6,7,7a,10,10a,11,12-dodecahydrocyclopenta[5,6]naphtho[1,2-d]azepin-2(10bH)-one]",half-life at 1 μM,[2],1 to 50 min
same,inhibition at 0.001 µM,[1]; [11],> 50%
same,IC50,[5]; [15],> 1000 nM
same,IC50,[4]; [13],< 11 nM
"C[C@]12CCNC(=O)C=C1C1CC1[C@@H]1[C@@H]2CC[C@]2(C)C(c3cccnc3)=CC[C@@H]12 (stereo partly drawn) [Compound 382, (5aR,7aS)-5a,7a-dimethyl-8-(pyridin-3-yl)-3,4,5,5a,5b,6,7,7a,10,10a,10b,10c,11,11a-tetradecahydro-2H-cyclopenta[5,6]cyclopropa[3,4]naphtho[1,2-d]azepin-2-one]",half-life at 1 μM,[2],1 to 50 min
same,inhibition at 0.001 µM,[1]; [11],> 50%
same,IC50,[5]; [15],> 100 nM
same,IC50,[4]; [13],< 11 nM
"C[C@]12CCC3C(CCC4=CC(=O)CC[C@@]43C)C1=CC=C2c1cncnc1 (stereo partly drawn) [Compound 471, (10R,13S)-10,13-dimethyl-17-(pyrimidin-5-yl)-6,7,8,9,10,11,12,13-octahydro-1H-cyclopenta[a]phenanthren-3(2H)-one]",half-life at 1 μM,[2],1 to 50 min
same,inhibition at 0.001 µM,[1]; [6],> 50%
same,IC50,"[5]; HEK 293-Cyp21 cells, read-out: CYP21-HEK293 enzymatic assay IC50 (Biological Example No. 11)",10 to 100 nM
same,IC50,[4]; [14],< 11 nM
"CCC1CC2C3=CC=C(c4cccnc4)[C@@]3(C)CCC2[C@@]2(C)CCC(=O)C=C12 (stereo partly drawn) [Compound 482, (10R,13S)-6-ethyl-10,13-dimethyl-17-(pyridin-3-yl)-6,7,8,9,10,11,12,13-octahydro-1H-cyclopenta[a]phenanthren-3(2H)-one]",half-life at 1 μM,[2],1 to 50 min
same,inhibition at 0.001 µM,[1]; [11],10 to 50%
same,IC50,[5]; [15],10 to 100 nM
same,IC50,[4],< 11 nM
